In this experiment the target is T1, human steroid 5-α-reductase (Homo sapiens, UniProt P31213).
T1 construct: Frozen human prostates were thawed and minced into small pieces; from tissue; host or cells: hyperplastic human prostate, washed 140,000×g particulate fraction
T1 sequence (P31213 1-254): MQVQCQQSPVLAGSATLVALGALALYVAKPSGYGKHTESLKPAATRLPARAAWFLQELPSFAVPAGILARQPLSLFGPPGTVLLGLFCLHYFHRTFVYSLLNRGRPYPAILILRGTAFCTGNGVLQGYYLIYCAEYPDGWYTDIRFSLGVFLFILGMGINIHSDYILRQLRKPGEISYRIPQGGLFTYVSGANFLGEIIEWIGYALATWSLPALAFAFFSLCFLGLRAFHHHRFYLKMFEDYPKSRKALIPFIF
The experiment in a line: inhibition of human steroid 5-α-reductase using tissue from hyperplastic human prostates. Type of experiment: biochemical. Here is the method: The tissue was homogenized in 3 to 5 volumes of 20 mM potassium phosphate, pH 6.5, buffer containing 0.33 M sucrose, 1 mM dithiothreitol, and 50 μM NADPH with a Brinkmann Polytron (Sybron Corporation, Westbury, N.Y.).
The resulting pellet was suspended in 20 mM potassium phosphate buffer, pH 6.5, containing 20% glycerol, 1 mM dithiothreitol, and 50 μM NADPH. The suspended particulate solution was stored at -80° C.
After incubating the solution at 37° C. for 20 to 30 minutes the reaction was quenched by the addition of 4 ml ethyl acetate and 0.25 μmol each of testosterone, dihydrotestosterone, androstanediol, and androstanedione as carriers. The organic layer was removed to a second test tube and evaporated to dryness in vacuo. […] The radiochemical content in the bands of the substrate and the products was determined with a BIOSCAN Imaging Scanner (Bioscan, Inc., Washington, D.C.). The percent of recovered radiolabel converted to product was calculated, from which enzyme activity was determined. All incubations were conducted such that no more than 12% of the substrate (testosterone) was consumed.
Assuming that the steroidal inhibitor is a competitive inhibitor against testosterone, a value for the inhibition constant (Ki) can be calculated from equation 1: […]

Where two headings read alike, the source gives them in different places.

From patent US4970204A, “3-substituted nitro-steroid derivatives as 5-α-reductase inhibitors” (SmithKline Beecham Corporation, priority 1989, dated 1990) come the findings set out here.

What is called Ki is a measure of affinity in units of concentration, obtained from inhibition or displacement.

`CC(C)N(C(=O)[C@H]1CC[C@H]2[C@@H]3CC[C@H]4CC([N+](=O)[O-])=CC[C@]4(C)[C@H]3CC[C@]12C)C(C)C` [2-ene analogue, 17β-N,N-diisopropylcarboxamide-3-nitro-5-α-androst-2-ene] registered a Ki of 250 nM.

Regarding `CC(C)N(C(=O)[C@H]1CC[C@H]2[C@@H]3CC[C@H]4C=C([N+](=O)[O-])CC[C@]4(C)[C@H]3CC[C@]12C)C(C)C` [17β-N,N-Diisopropylcarboxamide-3-nitro-5-α-androst-3-ene], under “human prostatic particulate enzyme, [14C]-testosterone substrate, pH 5.0, 37° C., 20 to 30 minutes, Dixon plot, assuming competitive inhibition against testosterone, read-out: inhibition constant (Ki)”, the inhibition constant Ki was found to be 50 nM.
